This passage reports EC50 results from US11339156B2, “3-(1H-pyrazol-4-yl)pyridine allosteric modulators of the M4 muscarinic acetylcholine receptor” (Merck Sharp & Dohme Corp., priority 2017, dated 2022).

For this assay, the target named is T1, human M4 muscarinic acetylcholine receptor (Homo sapiens, UniProt P08173).
T1 construct: expressed in transfected cells
T1 sequence (P08173 1-479): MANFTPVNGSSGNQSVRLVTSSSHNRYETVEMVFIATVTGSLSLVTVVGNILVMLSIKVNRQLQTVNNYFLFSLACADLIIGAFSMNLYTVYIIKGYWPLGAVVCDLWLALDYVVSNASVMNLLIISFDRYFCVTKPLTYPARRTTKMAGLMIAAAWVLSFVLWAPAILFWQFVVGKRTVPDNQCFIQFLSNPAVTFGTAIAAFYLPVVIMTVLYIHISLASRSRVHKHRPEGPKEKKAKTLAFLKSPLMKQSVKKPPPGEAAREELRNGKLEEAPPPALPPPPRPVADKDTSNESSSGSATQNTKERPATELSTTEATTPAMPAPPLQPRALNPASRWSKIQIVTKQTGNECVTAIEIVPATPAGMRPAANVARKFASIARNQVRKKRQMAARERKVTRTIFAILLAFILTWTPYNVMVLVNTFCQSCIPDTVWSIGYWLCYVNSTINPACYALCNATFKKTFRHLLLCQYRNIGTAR
As to the kind of experiment: human FLIPR-based M4 PAM assay (CHO-K1 cells with human M4 receptor and Gαqi5, calcium dye fluorescence). It counts as cell-based. The settings on record: inflection point of 4 parameter logistic fit; acetylcholine added at 20% of maximum response; read-out: M4PAM IP. As to the method:
In a typical experiment the M4 muscarinic acetylcholine receptor modulating activity of the compounds of the present invention was determined in accordance with the following experimental method. CHO-K1 cells stably transfected with human M4 receptor and chimeric G-protein Gαqi5 (Coward P, et al., Analytical Biochemistry, 270:242-248 (1999)) are thawed from liquid N2 storage, resuspended in growth medium, plated in black, clear bottom 384 well plates, and incubated 16-20 hours at 37° C., 5% CO2. On the day of assay, growth medium is removed, the cells are washed 2 times with wash buffer, and cells are incubated in dye loading buffer at 37° C., 5% CO2 for ˜1 hour. Following dye loading the cell plates are placed in a FLIPR Tetra instrument and while monitoring dye fluorescence (excitation […]), 10 uL of test substance at increasing concentrations is added, and fluorescence values are recorded for 4 min. Next, 10 uL of acetylcholine is added (final concentration calculated so as to achieve 20% of the maximum acetycholine response), and the fluorescence reading is continued for 3.5 min. In some cases, a third addition of acetylcholine (final concentration calculated to achieve 70% of the maximal acetylcholine response) is performed. The resulting dose response curves are fit to a 4 parameter logistic equation and the final result is determined as the inflection point (IP) of the curve
CHO-K1 cells stably transfected with human M4 receptor and chimeric G-protein Gαqi5 are thawed from liquid N2 storage, resuspended in growth medium, plated in black, clear bottom 384 well plates, and incubated 16-20 hours at 37° C., 5% CO2.
On the day of assay, growth medium is removed, the cells are washed 2 times with wash buffer, and cells are incubated in dye loading buffer at 37° C., 5% CO2 for ˜1 h. Following dye loading the cell plates are placed in a FLIPR Tetra instrument and while monitoring dye fluorescence ([…]), 10 uL of test substance at increasing concentrations is added, and fluorescence values are recorded for 4 min. Next, 10 uL of acetylcholine is added (final concentration calculated so as to achieve 20% of the maximum acetycholine response), and the fluorescence reading is continued for 3.5 min. In some cases, a third addition of acetylcholine (final concentration calculated to achieve 70% of the maximal acetylcholine response) is performed.
As for `Cc1cc(-c2cnn(CC3(C(F)(F)F)CC3)c2)c(-c2ccn3ccnc3c2)nc1Cl` [Example 60, 7-[6-chloro-5-methyl-3-(1-{[1-(trifluoromethyl)cyclo-propyl]methyl}-1H-pyrazol-4-yl)pyridin-2-yl]imidazo[1,2-a]pyridine], the EC50 amounted to 64.3 nM. As to `CN1Cc2ccc(-c3nc(C#N)ccc3-c3cnn(CC4(C(F)(F)F)CC4)c3)cc2C1=O` [Example 52, 6-(2-methyl-3-oxoisoindolin-5-yl)-5-(1-((1-(trifluoromethyl)cyclopropyl)methyl)-1H-pyrazol-4-yl)picolinonitrile], the EC50 is 20.7 nM. As to `CC(C)(Cn1cc(-c2ccc(C#N)nc2-c2ccn3ccnc3c2)cn1)C(F)(F)F` [Example 44, 6-(imidazo[1,2-a]pyridin-7-yl)-5-(1-(3,3,3-trifluoro-2,2-dimethylpropyl)-1H-pyrazol-4-yl)picolinonitrile], the EC50 was 28.4 nM. As for `FC(F)(F)C1(Cn2cc(-c3ccc(Cl)nc3-c3ccn4ccnc4c3)cn2)CC1` [Example 59, 7-[6-chloro-3-(1-{[1-(trifluoromethyl)cyclo-propyl]methyl}-1H-pyrazol-4-yl)pyridin-2-yl]imidazo[1,2-a]pyridine], the figure is 65.4 nM; as for `CC(C)(C)Cn1cc(-c2ccc(C#N)nc2-c2ccn3ncnc3c2)cn1` [Example 72, 5-[1-(2,2-dimethylpropyl)-1H-pyrazol-4-yl]-6-[1,2,4]triazolo[1,5-a]pyridin-7-ylpyridine-2-carbonitrile], 136 nM. On to `CC1(Cn2cc(-c3ccc(C#N)nc3-c3ccn4ccnc4c3)cn2)CCC1` [Example 94, 6-imidazo[1,2-a]pyridin-7-yl-5-{1-[(1-methylcyclobutyl)methyl]-1H-pyrazol-4-yl}pyridine-2-carbonitrile], for which the EC50 was 23.6 nM. As for `CC(C)(C)Cn1cc(-c2cc(F)cnc2-c2ccn3ccnc3c2)cn1` [Example 80, 7-{3-[1-(2,2-dimethylpropyl)-1H-pyrazol-4-yl]-5-fluoropyridin-2-yl}imidazo[1,2-a]pyridine], the figure is 97.7 nM; as for `Cc1ccc(-c2cnn(CC34CC(C3)C4)c2)c(-c2ccc3c(c2)C(=O)NC3)n1` [Example 8, 6-{3-[1-(bicyclo[1.1.1]pent-1-ylmethyl)-1H-pyrazol-4-yl]-6-methylpyridin-2-yl}-2,3-dihydro-1H-isoindol-1-one], 26.6 nM.

As to `Cc1nc2cc(-c3nc(C#N)ccc3-c3cnn(CC(C)(C)CC(F)F)c3)ccc2n1C` [Example 34, 5-[1-(4,4-difluoro-2,2-dimethylbutyl)-1H-pyrazol-4-yl]-6-(1,2-dimethyl-1H-benzimidazol-5-yl)pyridine-2-carbonitrile], the EC50 amounted to 54.2 nM. With `Cc1nc2cc(-c3ncccc3-c3cnn(CC4(F)CC(F)(F)C4)c3)ccn2n1` [Example 130, 2-methyl-7-(3-(1-((1,3,3-trifluorocyclobutyl)methyl)-1H-pyrazol-4-yl)pyridin-2-yl)-[1,2,4]triazolo[1,5-a]pyridine], the EC50 stood at 381 nM.

Regarding `CC(C)(C)Cn1cc(-c2ccc(C#N)nc2-c2ccn3cc(C(F)(F)F)nc3c2)cn1` [Example 66, 5-[1-(2,2-dimethylpropyl)-1H-pyrazol-4-yl]-6-[2-(trifluoromethyl)imidazo [1,2-a]pyridin-7-yl]pyridine-2-carbonitrile], the EC50 is 54.4 nM. For `Cc1nc2cc(-c3nc(C#N)ccc3-c3cnn(CC(C)(C)C)c3)cnc2n1C` [Example 89, 6-(2,3-dimethyl-3H-imidazo[4,5-b]pyridin-6-yl)-5-[1-(2,2-dimethylpropyl)-1H-pyrazol-4-yl]pyridine-2-carbonitrile] the value was 116 nM; for `Cc1cn2ccc(-c3nc(C#N)ccc3-c3cnn(CCC(O)C(F)(F)F)c3)cc2n1` (centres unmarked) [Example 43, 6-(2-methylimidazo[1,2-a]pyridin-7-yl)-5-[1-(4,4,4-trifluoro-3-hydroxybutyl)-1H-pyrazol-4-yl]pyridine-2-carbonitrile], 88.3 nM.

With `Cc1cn2ccc(-c3nc(C#N)ccc3-c3cnn(CC(C)(C)CC(F)(F)F)c3)cc2n1` [Example 16, 6-(2-methylimidazo[1,2-a]pyridin-7-yl)-5-[1-(4,4,4-trifluoro-2,2-dimethylbutyl)-1H-pyrazol-4-yl]pyridine-2-carbonitrile], the EC50 came out at 61.7 nM.

On to `CC(C)(C)Cn1cc(-c2ccc(C#N)nc2-c2ccn3c(F)cnc3c2)cn1` [Example 82, 5-[1-(2,2-dimethylpropyl)-1H-pyrazol-4-yl]-6-(3-fluoroimidazo[1,2-a]pyridin-7-yl)pyridine-2-carbonitrile], for which the EC50 turned out to be 51.6 nM. As for `CCC(F)(F)Cn1cc(-c2ccc(C#N)nc2-c2ccn3ccnc3c2)cn1` [Example 18, 5-[1-(2,2-difluorobutyl)-1H-pyrazol-4-yl]-6-imidazo[1,2-a]pyridin-7-ylpyridine-2-carbonitrile], the figure is 61.4 nM; as for `N#Cc1ccc(-c2cnn(CC3(CF)CC3)c2)c(-c2ccn3ccnc3c2)n1` [Example 19, 5-(1-{[1-(fluoromethyl)cyclo-propyl]methyl}-1H-pyrazol-4-yl)-6-imidazo[1,2-a]pyridin-7-ylpyridine-2-carbonitrile], 49.9 nM; as for `Cc1nc2cc(-c3nc(C#N)ccc3-c3cnn(CC(C)(C)C(C)(F)F)c3)ccc2n1C` [Example 28, 5-[1-(3,3-difluoro-2,2-dimethylbutyl)-1H-pyrazol-4-yl]-6-(1,2-dimethyl-1H-benzimidazol-5-yl)pyridine-2-carbonitrile], 67.4 nM. For `CC(C)CCn1cc(-c2ccc(Cl)nc2-c2ccc3c(c2)C(=O)N(Cc2ccccn2)C3)cn1` [Example 112, 6-{6-chloro-3-[1-(3-methylbutyl)-1H-pyrazol-4-yl]pyridin-2-yl}-2-(pyridin-2-ylmethyl)-2,3-dihydro-1H-isoindol-1-one] the value was 60.8 nM; for `N#Cc1ccc(-c2cnn(CC(F)(F)C(F)(F)F)c2)c(-c2ccn3ccnc3c2)n1` [Example 42, 6-imidazo[1,2-a]pyridin-7-yl-5-[1-(2,2,3,3,3-pentafluoropropyl)-1H-pyrazol-4-yl]pyridine-2-carbonitrile], 151 nM; for `Cc1nc2cc(-c3nc(C#N)ccc3-c3cnn(CCC(F)(F)C(F)F)c3)ccc2n1C` [Example 30, 6-(1,2-dimethyl-1H-benzimidazol-5-yl)-5-[1-(3,3,4,4-tetrafluorobutyl)-1H-pyrazol-4-yl]pyridine-2-carbonitrile], 102 nM. As for `Cc1nc2cc(-c3ncccc3-c3cnn(CC(C)(C)C(C)(F)F)c3)ccc2n1C` [Example 102, 5-{3-[1-(3,3-difluoro-2,2-dimethylbutyl)-1H-pyrazol-4-yl]pyridin-2-yl}-1,2-dimethyl-1H-benzimidazole], the figure is 113 nM; as for `Cc1ccc(-c2cnn(CC3(C)CCCCC3)c2)c(-c2ccc3cn(C)nc3c2)n1` [Example 2, 2-methyl-6-(6-methyl-3-{1-[(1-methylcyclohexyl)methyl]-1H-pyrazol-4-yl}pyridin-2-yl)-2H-indazole], 76 nM; as for `Cc1cn2ccc(-c3ncc(F)cc3-c3cnn(CC(C)(C)C(F)F)c3)cc2n1` [Example 106, 7-{3-[1-(3,3-difluoro-2,2-dimethylpropyl)-1H-pyrazol-4-yl]-5-fluoropyridin-2-yl}-2-methylimidazo[1,2-a]pyridine], 69.5 nM. In the case of `CN1Cc2ncc(-c3nc(C#N)ccc3-c3cnn(CC(C)(C)C)c3)cc2C1=O` [Example 65, 5-[1-(2,2-dimethylpropyl)-1H-pyrazol-4-yl]-6-(6-methyl-5-oxo-6,7-dihydro-5H-pyrrolo[3,4-b]pyridin-3-yl)pyridine-2-carbonitrile], the EC50 stood at 93.1 nM.

With `CC(C)CCn1cc(-c2cc(Cl)cnc2-c2ccc3scnc3c2)cn1` [Example 78, 5-{5-chloro-3-[1-(3-methylbutyl)-1H-pyrazol-4-yl]pyridin-2-yl}-1,3-benzothiazole], the EC50 came to 204 nM.
